Data set [1] concerns S. Pullorum. Description: Antimicrobial activity after treatment with serum. As to conditions: murine serum, 2, 4, and 6 h; 1 × MIC; inhibition zone; three replicate experiments. It counts as in vitro ADME, Salmonella Pullorum. On the procedure:
(§1) Biological fluids (SGF; SIF) and serum were prepared as described previously ([Liu et al., 2013]; [Xia et al., 2015]). Then, assays of the antibacterial activity of recombinant MccJ25 in SGF, SIF and serum were performed. S. Pullorum was grown in Mueller-Hinton broth (MHB, Difco Laboratories, Detroit, MI, United States). One milliliter of bacterial inoculum was transferred into 9 mL of each medium with the recombinant MccJ25 and into corresponding control medium without the recombinant MccJ25. LB agar inoculated with the indicator bacteria S. Pullorum (approximately 10^5 viable cells per mL) was poured over plates fitted with Oxford cups to make wells. Hundred and fifty μL of a 1 × MIC final concentration of recombinant MccJ25 samples that had previously been treated with SGF, SIF and serum for 2, 4, and 6 h, respectively, were added to the wells. The agar overlays were incubated overnight at 37°C, and the inhibition zones were recorded.

In data set [2] the test system is S. Pullorum. Description: Antimicrobial activity after treatment with simulated gastric fluid (SGF). Type of data set: in vitro ADME, Salmonella Pullorum. The settings on record: simulated gastric fluid, 2, 4, and 6 h; 1 × MIC; inhibition zone; three replicate experiments. On the procedure:
as §1

Data set [3] deals with pepsin. Description: Resistance to a single protease, inhibition zone read-out. It counts as in vitro ADME. As to conditions: pepsin for 2 and 4 h; 1 × MIC; inhibition zone against S. Pullorum; three replicate experiments. On the procedure: (§2) The resistance of recombinant MccJ25 to pepsin, trypsin and chymotrypsin was evaluated as described previously ([Chen et al., 2009]; [Meng et al., 2019]) with slight modification. The indicator Salmonella was prepared (approximately 1 × 10^7 CFU/mL), and 1 mL of bacterial inoculum was transferred into 9 mL of each medium with the recombinant MccJ25 and into corresponding control media without the recombinant MccJ25. LB agar inoculated with the indicator bacteria S. Pullorum (approximately 10^5 viable cells per mL) was poured over plates that had been fitted with Oxford cups to make wells. Then, 150 μL of a 1 × MIC final concentration of recombinant MccJ25 that had been previously treated under various conditions for 2 and 4 h were added to the wells. The agar overlays were incubated overnight at 37°C, and the inhibition zones were recorded.

Data set [4] relates to chymotrypsin. The data set is described as above. The settings on record: chymotrypsin for 2 and 4 h; 1 × MIC; inhibition zone against S. Pullorum; three replicate experiments. Type of data set: in vitro ADME. On the procedure: as §2
In data set [5] the test system is trypsin. The data set is described as above. Type of data set: in vitro ADME. The settings on record: trypsin for 2 and 4 h; 1 × MIC; inhibition zone against S. Pullorum; three replicate experiments. On the procedure: as §2
Data set [6] deals with S. Pullorum. Description: Antimicrobial activity after treatment with simulated intestinal fluid (SIF). It counts as in vitro ADME, Salmonella Pullorum. As to conditions: simulated intestinal fluid, 2, 4, and 6 h; 1 × MIC; inhibition zone; three replicate experiments. On the procedure: as §1

Structures are written as SMILES. Positions of bridges follow the written chain, without caps; N, C: chain ends. Residues, ends and D or L forms follow the SMILES beside them.

Turning to `CC[C@H](C)[C@H](NC(=O)CNC(=O)[C@@H](NC(=O)[C@H](Cc1ccccc1)NC(=O)[C@H](Cc1ccc(O)cc1)NC(=O)[C@@H]1CCC(=O)NCC(=O)NCC(=O)N[C@@H](C)C(=O)NCC(=O)N[C@@H](Cc2cnc[nH]2)C(=O)N[C@@H](C(C)C)C(=O)N2CCC[C@H]2C(=O)N1)C(C)C)C(=O)NCC(=O)N[C@H](C(=O)N1CCC[C@H]1C(=O)N[C@H](C(=O)N[C@@H](CO)C(=O)N[C@@H](Cc1ccccc1)C(=O)N[C@@H](Cc1ccc(O)cc1)C(=O)NCC(=O)O)[C@@H](C)CC)[C@@H](C)O` [recombinant MccJ25, microcin J25] (GGAGHVPEYFVGIGTPISFYG-OH; lactam N-8), the “growth inhibition of S. Pullorum after incubation with serum” value in data set [1] was “still inhibited the growth of S. Pullorum in a manner similar to that of recombinant MccJ25 alone”. Moreover, the “growth inhibition of S. Pullorum after incubation with SGF” value in data set [2] is given as “still inhibited the growth of S. Pullorum in a manner similar to that of recombinant MccJ25 alone”. Moreover, the “antimicrobial activity after protease challenge” value in data set [3], in data set [4] and in data set [5] was “maintained its antimicrobial activity” throughout. In addition, in data set [6], the “growth inhibition of S. Pullorum after incubation with SIF” value is reported as “still inhibited the growth of S. Pullorum in a manner similar to that of recombinant MccJ25 alone”.
